In ChEMBL document CHEMBL2346657, “Synthesis of novel 2-amino-4-(5'-substituted 2'-phenyl-1H-indol-3'-yl)-6-aryl-4H-pyran-3-carbonitrile derivatives as antimicrobial and antioxidant agents” (2013):
Activity calls are given as the source filed them. Unless noted, the calls are words filed in the database; no cut-off is given here.

Legend:
Type in all cases: functional
Klebsiella pneumoniae [1] = test: Antimicrobial activity against Klebsiella pneumoniae NCTC 13368 at 1000 ug/ml after 24 hrs by cup plate method; details: NCTC 13368, 24 h, read-out: IZ
Aspergillus terreus [2] = test: Antimicrobial activity against Aspergillus terreus MTCC 1782 at 750 ug/ml after 72 hrs by cup plate method; details: MTCC 1782, 72 h, read-out: IZ
Pseudomonas aeruginosa [3] = test: Antimicrobial activity against Pseudomonas aeruginosa MTCC 1688 at 1000 ug/ml after 24 hrs by cup plate method; details: MTCC 1688, 24 h, read-out: IZ
Aspergillus oryzae [4] = test: Antimicrobial activity against Aspergillus oryzae MTCC 3567 at 500 ug/ml after 72 hrs by cup plate method; details: MTCC 3567, 72 h, read-out: IZ
Aspergillus flavus [5] = test: Antimicrobial activity against Aspergillus flavus MTCC 1973 at 500 ug/ml after 72 hrs by cup plate method; details: MTCC 1973, 72 h, read-out: IZ
Pseudomonas aeruginosa [6] = test: Antimicrobial activity against Pseudomonas aeruginosa MTCC 1688 at 750 ug/ml after 24 hrs by cup plate method; details: MTCC 1688, 24 h, read-out: IZ
Escherichia coli [7] = test: Antimicrobial activity against Escherichia coli MTCC 723 at 500 ug/ml after 24 hrs by cup plate method; details: MTCC 723, 24 h, read-out: IZ
Aspergillus niger [8] = test: Antimicrobial activity against Aspergillus niger MTCC 281 at 750 ug/ml after 72 hrs by cup plate method; details: MTCC 281, 72 h, read-out: IZ
Staphylococcus aureus [9] = test: Antimicrobial activity against Staphylococcus aureus ATCC 29513 at 500 ug/ml after 24 hrs by cup plate method; details: ATCC 29513, 24 h, read-out: IZ
Klebsiella pneumoniae [10] = test: Antimicrobial activity against Klebsiella pneumoniae NCTC 13368 at 500 ug/ml after 24 hrs by cup plate method; details: NCTC 13368, 24 h, read-out: IZ
Aspergillus niger [11] = test: Antimicrobial activity against Aspergillus niger MTCC 281 at 1000 ug/ml after 72 hrs by cup plate method; details: MTCC 281, 72 h, read-out: IZ
Aspergillus terreus [12] = test: Antimicrobial activity against Aspergillus terreus MTCC 1782 at 500 ug/ml after 72 hrs by cup plate method; details: MTCC 1782, 72 h, read-out: IZ
Pseudomonas aeruginosa [13] = test: Antimicrobial activity against Pseudomonas aeruginosa MTCC 1688 at 500 ug/ml after 24 hrs by cup plate method; details: MTCC 1688, 24 h, read-out: IZ
[14] = Antioxidant activity assessed as ferric ion reducing activity at 25 to 75 ug/ml by FRAP assay
Aspergillus niger [15] = test: Antimicrobial activity against Aspergillus niger MTCC 281 at 500 ug/ml after 72 hrs by cup plate method; details: MTCC 281, 72 h, read-out: IZ
[16] = Antioxidant activity assessed as ferric ion reducing activity at 25 to 100 ug/ml by FRAP assay
Escherichia coli [17] = test: Antimicrobial activity against Escherichia coli MTCC 723 at 750 ug/ml after 24 hrs by cup plate method; details: MTCC 723, 24 h, read-out: IZ
Escherichia coli [18] = test: Antimicrobial activity against Escherichia coli MTCC 723 at 1000 ug/ml after 24 hrs by cup plate method; details: MTCC 723, 24 h, read-out: IZ
Aspergillus flavus [19] = test: Antimicrobial activity against Aspergillus flavus MTCC 1973 at 1000 ug/ml after 72 hrs by cup plate method; details: MTCC 1973, 72 h, read-out: IZ
Aspergillus flavus [20] = test: Antimicrobial activity against Aspergillus flavus MTCC 1973 at 750 ug/ml after 72 hrs by cup plate method; details: MTCC 1973, 72 h, read-out: IZ
Aspergillus oryzae [21] = test: Antimicrobial activity against Aspergillus oryzae MTCC 3567 at 1000 ug/ml after 72 hrs by cup plate method; details: MTCC 3567, 72 h, read-out: IZ
Klebsiella pneumoniae [22] = test: Antimicrobial activity against Klebsiella pneumoniae NCTC 13368 at 750 ug/ml after 24 hrs by cup plate method; details: NCTC 13368, 24 h, read-out: IZ
Staphylococcus aureus [23] = test: Antimicrobial activity against Staphylococcus aureus ATCC 29513 at 1000 ug/ml after 24 hrs by cup plate method; details: ATCC 29513, 24 h, read-out: IZ
[24] = Antioxidant activity assessed as metal chelating activity by measuring inhibition of ferrozine-Fe2+ complex formation at 25 to 100 ug/ml
Aspergillus terreus [25] = test: Antimicrobial activity against Aspergillus terreus MTCC 1782 at 1000 ug/ml after 72 hrs by cup plate method; details: MTCC 1782, 72 h, read-out: IZ
Aspergillus oryzae [26] = test: Antimicrobial activity against Aspergillus oryzae MTCC 3567 at 750 ug/ml after 72 hrs by cup plate method; details: MTCC 3567, 72 h, read-out: IZ
Staphylococcus aureus [27] = test: Antimicrobial activity against Staphylococcus aureus ATCC 29513 at 750 ug/ml after 24 hrs by cup plate method; details: ATCC 29513, 24 h, read-out: IZ
[28] = Antioxidant activity assessed as ferric ion reducing activity at 75 ug/ml by FRAP assay
[29] = system: Radical scavenging activity; test: Antioxidant activity assessed as DPPH radical scavenging activity at 75 ug/ml
[30] = Antioxidant activity assessed as ferric ion reducing activity at 100 ug/ml by FRAP assay
[31] = system: Radical scavenging activity; test: Antioxidant activity assessed as DPPH radical scavenging activity at 100 ug/ml

SMILES | zone of inhibition at 1000 µg/mL (Klebsiella pneumoniae [1]) [mm] | zone of inhibition at 750 µg/mL (Aspergillus terreus [2]) [mm] | zone of inhibition at 1000 µg/mL (Pseudomonas aeruginosa [3]) [mm] | zone of inhibition at 500 µg/mL (Aspergillus oryzae [4]) [mm] | zone of inhibition at 500 µg/mL (Aspergillus flavus [5]) [mm] | zone of inhibition at 750 µg/mL (Pseudomonas aeruginosa [6]) [mm] | zone of inhibition at 500 µg/mL (Escherichia coli [7]) [mm] | zone of inhibition at 750 µg/mL (Aspergillus niger [8]) [mm] | zone of inhibition at 500 µg/mL (Staphylococcus aureus [9]) [mm] | zone of inhibition at 500 µg/mL (Klebsiella pneumoniae [10]) [mm] | zone of inhibition at 1000 µg/mL (Aspergillus niger [11]) [mm] | zone of inhibition at 500 µg/mL (Aspergillus terreus [12]) [mm] | zone of inhibition at 500 µg/mL (Pseudomonas aeruginosa [13]) [mm] | zone of inhibition at 500 µg/mL (Aspergillus niger [15]) [mm] | zone of inhibition at 750 µg/mL (Escherichia coli [17]) [mm] | zone of inhibition at 1000 µg/mL (Escherichia coli [18]) [mm] | zone of inhibition at 1000 µg/mL (Aspergillus flavus [19]) [mm] | zone of inhibition at 750 µg/mL (Aspergillus flavus [20]) [mm] | zone of inhibition at 1000 µg/mL (Aspergillus oryzae [21]) [mm] | zone of inhibition at 750 µg/mL (Klebsiella pneumoniae [22]) [mm] | further results
Cc1ccc(C2=CC(c3c(-c4ccccc4)[nH]c4ccc(Cl)cc34)c3c(nc[nH]c3=O)O2)cc1 (centres undefined) | 9 | 8 | 8 | 12 | 6 | 8 | 3 | 8 | 5 | 9 | 8 | 8 | 8 | 8 | 3 | 3 | 6 | 6 | 13 | 9 | Activity [14]: Active; Activity [16]: Active; zone of inhibition at 1000 µg/mL (Staphylococcus aureus [23]): 3 mm; Activity [24]: Active; zone of inhibition at 1000 µg/mL (Aspergillus terreus [25]): 8 mm; zone of inhibition at 750 µg/mL (Aspergillus oryzae [26]): 13 mm; zone of inhibition at 750 µg/mL (Staphylococcus aureus [27]): 3 mm
Nc1n[nH]c2c1C(c1c(-c3ccccc3)[nH]c3ccccc13)C=C(c1ccc(Cl)cc1)O2 (centres undefined) | 5 | 6 | 10 | 12 | 9 | 10 | 13 | 5 | 5 | 5 | 3 | 8 | 10 | 7 | 13 | 14 | 9 | 9 | 13 | 5 | zone of inhibition at 1000 µg/mL (Staphylococcus aureus [23]): 3 mm; Activity [24]: Active; Activity [28]: Active; zone of inhibition at 1000 µg/mL (Aspergillus terreus [25]): 11 mm; zone of inhibition at 750 µg/mL (Aspergillus oryzae [26]): 12 mm; zone of inhibition at 750 µg/mL (Staphylococcus aureus [27]): 4 mm
Cc1ccc(C2=CC(c3c(-c4ccccc4)[nH]c4ccc(Cl)cc34)c3c(nc4oc(=O)c(C#N)c(N)c4c3N)O2)cc1 (centres undefined) | 8 | 3 | 2 | 10 | 6 | 2 | 12 | 0 | 5 | 8 | 3 | 3 | 2 | 0 | 10 | 9 | 3 | 5 | 10 | 8 | Activity [29]: Active; zone of inhibition at 1000 µg/mL (Staphylococcus aureus [23]): 3 mm; Activity [24]: Active; zone of inhibition at 1000 µg/mL (Aspergillus terreus [25]): 3 mm; zone of inhibition at 750 µg/mL (Aspergillus oryzae [26]): 10 mm; zone of inhibition at 750 µg/mL (Staphylococcus aureus [27]): 3 mm
Nc1nc(=S)[nH]c2c1C(c1c(-c3ccccc3)[nH]c3ccc(Cl)cc13)C=C(c1ccc(Cl)cc1)O2 (centres undefined) | 8 | 3 | 11 | 9 | 5 | 10 | 10 | 11 | 13 | 5 | 14 | 2 | 10 | 11 | 10 | 11 | 11 | 4 | 0 | 5 | Activity [29]: Active; zone of inhibition at 1000 µg/mL (Staphylococcus aureus [23]): 13 mm; Activity [24]: Active; zone of inhibition at 1000 µg/mL (Aspergillus terreus [25]): 3 mm; zone of inhibition at 750 µg/mL (Aspergillus oryzae [26]): 10 mm; zone of inhibition at 750 µg/mL (Staphylococcus aureus [27]): 13 mm
Cc1ccc(C2=CC(c3c(-c4ccccc4)[nH]c4ccccc34)C(C#N)=C(N)O2)cc1 (centres undefined) | 5 | 6 | 6 | 5 | 8 | 8 | 10 | 8 | 0 | 8 | 8 | 8 | 9 | 8 | 10 | 10 | 10 | 9 | 8 | 6 | Activity [30]: Active; zone of inhibition at 1000 µg/mL (Staphylococcus aureus [23]): 0 mm; Activity [24]: Active; zone of inhibition at 1000 µg/mL (Aspergillus terreus [25]): 5 mm; zone of inhibition at 750 µg/mL (Aspergillus oryzae [26]): 9 mm; zone of inhibition at 750 µg/mL (Staphylococcus aureus [27]): 0 mm
Nc1nc(=O)[nH]c2c1C(c1c(-c3ccccc3)[nH]c3ccc(Cl)cc13)C=C(c1ccc(Cl)cc1)O2 (centres undefined) | 9 | 9 | 9 | 9 | 6 | 9 | 9 | 12 | 13 | 9 | 13 | 9 | 9 | 12 | 10 | 10 | 4 | 6 | 9 | 9 | Activity [31]: 75.5%; zone of inhibition at 1000 µg/mL (Staphylococcus aureus [23]): 14 mm; Activity [24]: Active; Activity [28]: Active; zone of inhibition at 1000 µg/mL (Aspergillus terreus [25]): 9 mm; zone of inhibition at 750 µg/mL (Aspergillus oryzae [26]): 9 mm; zone of inhibition at 750 µg/mL (Staphylococcus aureus [27]): 13 mm
Cc1ccc2[nH]c(-c3ccccc3)c(C3C=C(c4ccc(Cl)cc4)Oc4[nH]c(=S)nc(N)c43)c2c1 (centres undefined) | 5 | 3 | 9 | 9 | 3 | 9 | 4 | 5 | 9 | 5 | 3 | 3 | 9 | 5 | 3 | 3 | 4 | 3 | 9 | 3 | Activity [14]: Active; zone of inhibition at 1000 µg/mL (Staphylococcus aureus [23]): 11 mm; Activity [24]: Active; zone of inhibition at 1000 µg/mL (Aspergillus terreus [25]): 10 mm; zone of inhibition at 750 µg/mL (Aspergillus oryzae [26]): 8 mm; zone of inhibition at 750 µg/mL (Staphylococcus aureus [27]): 9 mm
